Experimental findings from ChEMBL document CHEMBL4265900, “Discovery of the bifunctional modulator of angiotensin II type 1 receptor (AT1R) and PPARγ derived from the AT1R antagonist, Fimasartan” (Bioorg Med Chem Lett, 2018) are described below.

For data set [1], the target named is T1, Peroxisome proliferator-activated receptor gamma (Homo sapiens) (UniProt P37231).
T1 sequence (whole entry): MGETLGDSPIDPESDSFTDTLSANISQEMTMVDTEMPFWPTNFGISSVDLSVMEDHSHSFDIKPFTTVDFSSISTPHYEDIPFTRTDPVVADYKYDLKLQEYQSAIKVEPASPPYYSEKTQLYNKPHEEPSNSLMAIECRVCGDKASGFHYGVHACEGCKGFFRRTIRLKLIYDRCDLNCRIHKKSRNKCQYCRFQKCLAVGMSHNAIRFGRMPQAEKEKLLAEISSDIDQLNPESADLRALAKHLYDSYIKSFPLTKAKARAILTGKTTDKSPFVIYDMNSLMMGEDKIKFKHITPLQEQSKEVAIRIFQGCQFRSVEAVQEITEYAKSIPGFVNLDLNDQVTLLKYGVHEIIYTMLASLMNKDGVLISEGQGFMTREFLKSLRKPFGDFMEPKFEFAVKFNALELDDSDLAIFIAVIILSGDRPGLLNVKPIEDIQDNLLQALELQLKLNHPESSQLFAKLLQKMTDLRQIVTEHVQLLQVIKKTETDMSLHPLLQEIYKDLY
The experiment in a line: Agonist activity at PPARgamma (unknown origin) at 1 uM relative to telmisartan.

For data set [2], the target named is T2, Type-1 angiotensin II receptor (Homo sapiens, UniProt P30556).
T2 sequence (P30556 whole entry): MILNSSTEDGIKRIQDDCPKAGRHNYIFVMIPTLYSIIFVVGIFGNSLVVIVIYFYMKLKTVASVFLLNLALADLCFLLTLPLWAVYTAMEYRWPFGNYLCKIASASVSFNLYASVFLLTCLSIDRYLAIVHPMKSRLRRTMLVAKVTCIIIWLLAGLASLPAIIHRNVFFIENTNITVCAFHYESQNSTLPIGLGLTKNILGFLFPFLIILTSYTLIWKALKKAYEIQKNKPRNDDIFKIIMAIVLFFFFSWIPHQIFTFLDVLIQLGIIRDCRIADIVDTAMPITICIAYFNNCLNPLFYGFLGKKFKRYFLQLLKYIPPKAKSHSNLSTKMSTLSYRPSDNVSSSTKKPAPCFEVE
The experiment in a line: Antagonist activity at type-1 angiotensin 2 receptor (unknown origin) by calcium mobilizing assay. Format: functional.

Data set [3] has as its target T3, Type-1 angiotensin II receptor (Homo sapiens) (UniProt P30556).
T3 sequence (whole entry): T2 sequence (P30556 whole entry)
In words: Antagonist activity at type-1 angiotensin 2 receptor (unknown origin) at 20 nM by calcium mobilizing assay relative to fimasartan. Format: functional.

Data set [4] is described as follows: Cmax in rat at 10 mg/kg, po. Format: ADME, organism-based. Set-up: dose 10 mg/kg, route oral. To be noted: in vivo.
Data set [5] deals with Rattus norvegicus. In words: Antihypertensive activity in angiotensin 2 induced hypertension rat model at 3 mg/kg, po measured until 8 hrs post dose. Format: functional, organism-based.
The nature of data set [6]: AUClast in mouse at 20 mg/kg, po. Set-up: dose 20 mg/kg, route oral, time 0 - last. Format: ADME, organism-based. Conditions: in vivo.
The test system of data set [7] is Rattus norvegicus. In words: Antihypertensive activity in angiotensin 2 induced hypertension rat model assessed as time required for 50% reduction in blood pressure at 3 mg/kg, po. Format: functional.
The nature of data set [8]: AUClast in rat at 10 mg/kg, po. Format: ADME, organism-based. Details: dose 10 mg/kg, route oral, time 0 - last. Conditions: in vivo.
Data set [9] is described as follows: Half life in rat at 10 mg/kg, po. Format: ADME, organism-based. Conditions: in vivo.
Data set [10] can be described thus: Tmax in rat at 10 mg/kg, po. Format: ADME, organism-based. Conditions: in vivo.
Data set [11] in a line: Cmax in mouse at 20 mg/kg, po. Format: ADME, organism-based. Set-up: dose 20 mg/kg, route oral. To be noted: in vivo.
For data set [12], the system named is Mus musculus. In words: Toxicity in db/db mouse model assessed as suppression of weight gain at 20 mg/kg, po qd measured after 11 days. Format: organism-based. Conditions: in vivo, 264 h.
For data set [13], the system named is Mus musculus. In words: Antidiabetic activity in db/db mouse model assessed as suppression of blood glucose increase at 20 mg/kg qd, po administered for 13 days. Format: functional, organism-based.

As usually defined, the IC50 is the concentration needed to halve the response being measured. Usually inhibition stands for the change of the read-out against control, counted positive when it falls. What is called Cmax is the maximum level reached in the sampled fluid or tissue. Usually AUC(0-t) stands for the area under the concentration-time curve up to a stated or last time point. A high value points to high exposure. For orientation: half-life means how long it takes for the measured level to halve. Low readings indicate fast loss, high ones slow loss. As usually defined, the Tmax is the time at which the peak concentration occurs.

Each structure is given as a SMILES string. Calls of active or inactive are those of the source. The rule behind the calls is not given here.

In turn, `CCCCc1nc(C)c(CC(=S)N(C)C)c(=O)n1Cc1ccc(-c2ccccc2-c2noc(=O)[nH]2)cc1` showed an Activity in data set [1] of 120%. For the same molecule, the IC50 in data set [2] turned out to be 1.6 nM.

Take `CCCCc1nc(C)c(CC(=S)N(C)CC(C)C)c(=O)n1Cc1ccc(-c2ccccc2-c2noc(=O)[nH]2)cc1`: the Activity in data set [1] is 122%. In data set [2], the IC50 worked out at 2.1 nM.

As for `CCCCc1nc(C2CC2)c(CC(=S)N2CCCC2)c(=O)n1Cc1ccc(-c2ccccc2-c2noc(=O)[nH]2)cc1`, in data set [3], the inhibition was 63%. Further, in data set [1], the Activity stood at 79%.

Consider `CCCCc1nc(C)c(CC(=S)N(C)C)c(=O)n1Cc1ccc(-c2ccccc2S(N)(=O)=O)cc1`, for which the inhibition in data set [3] was 11%.

As for `CCCCc1nc(C)c(CC(=S)N(C)C)c(=O)n1Cc1ccc(-c2ccccc2C(=O)O)cc1`, in data set [3], the inhibition is 80%. Besides, in data set [1], the Activity came out at 140%.

Regarding `CCCCc1nc(C)c(CC(=S)N2[C@H](C)CC[C@H]2C)c(=O)n1Cc1ccc(-c2ccccc2-c2noc(=O)[nH]2)cc1`, the Activity in [1] came to 100%. In addition, the IC50 in data set [2] was determined as 1.8 nM.

`CCCCc1nc(C)c(CC(=S)N(C)C(C)C)c(=O)n1Cc1ccc(-c2ccccc2-c2noc(=O)[nH]2)cc1`: in data set [3], the inhibition was 107%. Besides, in [1], the Activity came out at 106%.

`CCCCc1nc(C)c(CC(=S)N(C)C)c(=O)n1Cc1ccc(-c2ccccc2-c2nnn[nH]2)cc1` [FIMASARTAN]: the Cmax in data set [4] came to 518 ng/mL; in [11], 145 ng/mL. Moreover, in data set [1], the Activity came to 0%. Also, the result in [5] was Active. For the same molecule, the AUC(0-t) amounted to 254 ng·h/mL in [6] and 1930 ng·h/mL in data set [8]. Also, the Time in data set [7] turned out to be 22 h. The half-life in data set [9] is 3.6 h. The IC50 in data set [2] was 4.5 nM. Besides, the Tmax in data set [10] was found to be 7.8 min.

Regarding `CCc1ccc(CCOc2ccc(CC3SC(=O)NC3=O)cc2)nc1` (configuration not stated) [PIOGLITAZONE], the Activity entry in [12] is on record as “Non-Toxic”. Besides, in data set [13], the outcome was Active.

`CCCCc1nc(C)c(CC(=S)N2CCCCC2)c(=O)n1Cc1ccc(-c2ccccc2-c2noc(=O)[nH]2)cc1` returned an Activity in data set [1] of 116%. The IC50 in data set [2] was 38 nM.
